Values quoted from earlier work, collected in patent US6953790B2, “CGRP receptor antagonists” (Merck & Co., Inc., priority 2003, dated 2005).
No end group written: not given here.

Legend:
[1] = system: facial blood flow; settings: marmoset, electrical stimulation of the trigeminal ganglion (Doods et al. 2000)
[2] = target: T1, CGRP receptor (Homo sapiens, UniProt O60894+Q16602); settings: clinical trials (Olesen et al. 2004)
T1 construct: host or cells: human migraine patients (in vivo)

[3] = system: middle meningeal artery; settings: rats, electrical stimulation of the dura mater, prior administration (Williamson et al. 1997)
[4] = system: facial blood flow; settings: rat, trigeminal ganglion stimulation (Escott et al. 1995)

T1 sequence (Q16602 23-461): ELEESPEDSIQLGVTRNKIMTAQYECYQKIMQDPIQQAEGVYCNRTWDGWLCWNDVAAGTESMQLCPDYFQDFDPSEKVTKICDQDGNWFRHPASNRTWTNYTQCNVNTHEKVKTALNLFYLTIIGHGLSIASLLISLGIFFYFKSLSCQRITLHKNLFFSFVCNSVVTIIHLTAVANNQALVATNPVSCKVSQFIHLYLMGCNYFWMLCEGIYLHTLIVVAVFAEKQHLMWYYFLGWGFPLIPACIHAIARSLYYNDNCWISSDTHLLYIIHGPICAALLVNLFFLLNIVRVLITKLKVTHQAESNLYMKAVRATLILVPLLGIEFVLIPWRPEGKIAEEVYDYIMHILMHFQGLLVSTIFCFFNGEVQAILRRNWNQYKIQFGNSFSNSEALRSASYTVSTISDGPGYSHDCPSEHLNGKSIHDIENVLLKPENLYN
T1 sequence (O60894 27-148): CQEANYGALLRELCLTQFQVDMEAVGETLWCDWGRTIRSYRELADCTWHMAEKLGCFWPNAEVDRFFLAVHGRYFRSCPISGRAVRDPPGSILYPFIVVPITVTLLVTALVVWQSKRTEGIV

Molecule | effect on increase in facial blood flow [1] | efficacy in acute attacks of migraine [2] | effect on increase in diameter of the middle meningeal artery [3] | effect on increased facial blood flow [4]
NCCCC[C@H](NC(=O)[C@@H](Cc1cc(Br)c(O)c(Br)c1)NC(=O)N1CCC(N2Cc3ccccc3NC2=O)CC1)C(=O)N1CCN(c2ccncc2)CC1 [BIBN4096BS] | blocked | effective in treating acute attacks of migraine | – | –
CGRP(8-37): "a peptide CGRP antagonist" (VTHRLAGLLSRSGGVVKNNFVPTNVGSKAF; ends and bridges not checked; UniProt P06881 90-119, looked up, fragment) | – | – | blocked | inhibited
